Assay results from US20190194148A1, “TETRAZOLE-CONTAINING 1,2-CYCLOPROPANE-CARBOXAMIDES” (Bayer Pharma Aktiengesellschaft, priority 2017, published 2019).
Where two headings read alike, the source gives them in different places.

Tests used:
human B1 receptor = target: T1, human B1 receptor (Homo sapiens, UniProt P46663); assay: Calcium flux assay (FLIPR) with recombinant CHO-K1 cells expressing human B1 receptor; format: cell-based
T1 construct: host or cells: CHO-K1
T1 sequence (P46663 1-353): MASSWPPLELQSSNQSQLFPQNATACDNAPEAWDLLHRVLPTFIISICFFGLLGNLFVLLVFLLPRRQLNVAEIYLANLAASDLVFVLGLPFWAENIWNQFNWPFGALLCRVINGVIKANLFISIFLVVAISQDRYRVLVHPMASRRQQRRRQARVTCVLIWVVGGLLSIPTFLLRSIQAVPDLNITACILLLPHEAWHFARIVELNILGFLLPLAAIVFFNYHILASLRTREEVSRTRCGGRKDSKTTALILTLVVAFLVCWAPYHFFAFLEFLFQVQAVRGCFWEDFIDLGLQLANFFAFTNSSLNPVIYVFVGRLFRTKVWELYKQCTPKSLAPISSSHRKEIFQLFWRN
Outline: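 Indicator-loaded CHO-K1 cells expressing human B1 receptor were pre-incubated with compound (8 concentrations, triplicate, 1% DMSO) for 30 min at 28° C, in assay buffer with or without 0.1% BSA (hB1 IC50 vs free IC50). They were then challenged with Lys-(Des-Arg)-bradykinin from plates at 3.5×EC90, with peak FLIPR fluorescence read at 538 nm. IC50 was fitted from % response between DMSO and full block by 20 μM Lys-(Des-Arg-Leu)-bradykinin.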

[1] = target: T2, native human B1 receptors (Homo sapiens, UniProt P46663); assay: Calcium flux assay (FLIPR) with IMR-90 human fibroblasts for Bradykinin B1 receptor antagonist; format: cell-based; conditions: IMR-90 human foetal lung fibroblasts after induction with human IL-1; 0.1% BSA in assay buffer; read-out: hB1 IC50 IMR90
T2 construct: which express native human B1 receptors after induction with human IL-1; Coriell Institute; host or cells: IMR-90 human foetal lung fibroblasts, induced with human IL-1beta
T2 sequence (P46663 1-353): T1 sequence (P46663 1-353)
Procedure: Calcium Flux Assay (FLIPR) with Human Fibroblasts for Bradykinin B1 Receptor Antagonist (hB1 IMR-90 IC50)
The Calcium flux Assay was carried out utilising IMR-90 human foetal lung fibroblasts (American Type Culture Collection, Rockville, Md.; and Coriell Institute, Camden, N.J.), which express native human B1 receptors after induction with human IL-1[…].
The fibroblasts were cultured in complete growth media comprised of Dulbecco's modified Eagle's medium (DMEM; Sigma) containing 10% foetal bovine serum, 4 mM L-glutamine, and 1% nonessential amino acids. The cells were maintained in a humidified atmosphere with 5% CO2 at 37° C. and were sub-cultured at a ratio of 1:3, every other day.
For the assay, IMR-90 fibroblasts were harvested using TrypLE Express (GIBCO/Invitrogen) and seeded into 384-well plates (Corning Cellbinding Surface, Cat. 3683) at a density of 15000 cells/well. The following day, cells were treated with 0.35 ng/mL human IL-1[…] in 10% FBS/MEM for 3 h to up-regulate B1 receptors. Induced cells were loaded with fluorescent calcium indicator by incubation with 2.5 μM Fluo-4/AM (Invitrogen) at 37° C., 5% CO2 for 2 h in the presence of 2.5 mM probenecid in 1% FBS/MEM. Extracellular dye was removed by washing with assay buffer (2.5 mM probenecid and 0.1% BSA in 20 mM HEPES/HBSS without bicarbonate or phenol red, pH 7.5). Example compounds were assayed at 8 concentrations in triplicate. […] A peptide antagonist Lys-(Des-Arg-Leu)-Bradykinin (Bachem, Brackley) at 20 µM was used to determine the full inhibition as control. IC50 values were determined by the same way described for the FLIPR assay with recombinant cells.

IL-8 secretion = assay: Bradykinin B1 receptor agonist-induced secretion of IL-8 in human IMR-90 cells; format: cell-based; conditions: IMR-90 cells stimulated with 0.1 μM Lys-[Des-Arg9]Bradykinin and 0.1 μM Sar-[D-Phe8]-des-Arg9-Bradykinin for 5 hours
Excerpt: (§1) Inhibitory Activity on Bradykinin B1 Receptor Agonist-Induced Secretion of IL-6 and IL-8 in Human IMR-90 Cells
(§2) The effect of the example compounds on cytokine secretion has been investigated in the human fetal lung fibroblast IMR-90 cell line. Here the induction of the cytokine secretion was induced by the Bradykinin B1 receptor agonists Lys-[Des-Arg9]Bradykinin and Sar-[D-Phe8]-des-Arg9-Bradykinin leading to the activation of the Bradykinin B1 receptor-driven signaling pathway.
(§3) IMR-90 cells were cultured in Eagle's Minimum Essential Medium (EMEM) containing 2 mM L-glutamine, 1 g/L glucose, 1.5 g/L NaHCO3, 1 mM sodium pyruvate and non-essential amino acids (ATCC, 30-2003™) supplemented with 10% FBS (Biochrom, S0615) and 50 U/mL Penicillin, 50 μg/mL Streptomycin (PAA, P11-010). The assay was performed in EMEM and a cell density of […] IMR-90 cells/96-well. The example compounds have been serial diluted in 100% DMSO and evaluated at 8 different concentrations within the range of 3 nM and 10 μM and a final DMSO concentration of 0.4%. […] The amount of IL-6 and IL-8 in the supernatant was determined using the Human Prolnflammatory 9-Plex (MSD, K15007B) according to manufacturer's instruction. The cell viability was measured using the CellTiter-Glo Luminescent Assay (Promega, G7571) following the manufacturers protocol. […]

IMR-90 cells = assay: Cell viability of stimulated IMR-90 cells (CellTiter-Glo); format: cell-based, human
Procedure: IMR-90 cells were cultured in Eagle's Minimum Essential Medium (EMEM) containing 2 mM L-glutamine, 1 g/L glucose, 1.5 g/L NaHCO3, 1 mM sodium pyruvate and non-essential amino acids (ATCC, 30-2003™) supplemented with 10% FBS (Biochrom, S0615) and 50 U/mL Penicillin, 50 μg/mL Streptomycin (PAA, P11-010). The assay was performed in EMEM and a cell density of […] IMR-90 cells/96-well. The example compounds have been serial diluted in 100% DMSO and evaluated at 8 different concentrations within the range of 3 nM and 10 μM and a final DMSO concentration of 0.4%. The IMR-90 cells have been incubated with the respective concentration of the example compound for 30 min. The enhanced secretion of IL-6 and IL-8 was induced by the stimulation of these cells with 0.1 μM Lys-[Des-Arg9]Bradykinin (Tocris, 3225) and 0.1 μM Sar-[D-Phe8]-des-Arg9-Bradykinin (Tocris, 3230) for 5 hours at 37° C. and 5% CO2. Further, cells have been treated with Lys-[Des-Arg9] Bradykinin and Sar-[D-Phe8]-des-Arg9-Bradykinin as neutral control and with 0.1% DMSO as inhibitor control. The amount of IL-6 and IL-8 in the supernatant was determined using the Human Prolnflammatory 9-Plex (MSD, K15007B) according to manufacturer's instruction. The cell viability was measured using the CellTiter-Glo Luminescent Assay (Promega, G7571) following the manufacturers protocol.

IL-6 secretion = assay: Bradykinin B1 receptor agonist-induced secretion of IL-6 in human IMR-90 cells; format: cell-based; conditions: IMR-90 cells stimulated with 0.1 μM Lys-[Des-Arg9]Bradykinin and 0.1 μM Sar-[D-Phe8]-des-Arg9-Bradykinin for 5 hours
Excerpt: as §1, §2, §3

[2] = absence of 0.1% BSA in assay buffer, read-out: hB1 free IC50
[3] = presence of 0.1% BSA in assay buffer, read-out: hB1 IC50

Compound | IC50 (human B1 receptor; [2]) [nM] | IC50 (human B1 receptor; [3]) [nM] | IC50 [1] [nM] | IC50 (IL-8 secretion) [nM] | effect on the cell viability (IMR-90 cells) | IC50 (IL-6 secretion) [nM]
COc1ccc(-c2ccc(NC(=O)C3CC3c3cccc(Cl)c3)cc2-c2nnn[nH]2)cc1OC (racemic) [Example 8, 2-(3-chlorophenyl)-N-[3′,4′-dimethoxy-2-(1H-tetrazol-5-yl)biphenyl-4-yl]cyclo-propanecarboxamide] | 12 | 8 | 8 |  |  | 
COc1ccc(-c2ccc(NC(=O)C3CC3C3CCC(C)CC3)cc2-c2nnn[nH]2)cc1OC (racemic) [Example 15, N-[3′,4′-dimethoxy-2-(1H-tetrazol-5-yl)biphenyl-4-yl]-2-(4-methylcyclohexyl)cyclo-propanecarboxamide] |  | 5 | 25 |  |  | 
CCOc1ccc(-c2ccc(NC(=O)C3CC3c3ccc(Cl)cc3)cc2-c2nnn[nH]2)cn1 (racemic) [Example 17, 2-(4-Chlorophenyl)-N-[4-(6-ethoxypyridin-3-yl)-3-(1H-tetrazol-5-yl)phenyl]cyclopro-panecarboxamide] | 5 | 97 | 12 |  |  | 
CCOc1ccc(-c2ccc(NC(=O)C3CC3c3cccc(C)c3)cc2-c2nnn[nH]2)cn1 (racemic) [Example 18, N-[4-(6-Ethoxypyridin-3-yl)-3-(1H-tetrazol-5-yl)phenyl]-2-(3-methylphenyl)cyclopro-panecarboxamide] | 5 | 15 | 6 |  |  | 
CCOc1ccc(-c2ccc(NC(=O)C3CC3c3cccc(Cl)c3)cc2-c2nnn[nH]2)cn1 (racemic) [Example 19, 2-(3-Chlorophenyl)-N-[4-(6-ethoxypyridin-3-yl)-3-(1H-tetrazol-5-yl)phenyl]cyclopro-panecarboxamide] | 6 |  | 10 |  |  | 
CCOc1ccc(-c2ccc(NC(=O)C3(C)CC3c3ccccc3)cc2-c2nnn[nH]2)cn1 (racemic) [Example 21, [4-(6-Ethoxypyridin-3-yl)-3-(1H-tetrazol-5-yl)phenyl]-1-methyl-2-phenylcyclopropane-carboxamide] | 14 | 22 | 22 |  |  | 
CC(C)(C)c1cn(-c2ccc(NC(=O)C3CC3c3ccc(Cl)cc3)cc2-c2nnn[nH]2)cn1 (racemic) [Example 48, N-[4-(4-tert-butyl-1H-imidazol-1-yl)-3-(1H-tetrazol-5-yl)phenyl]-2-(4-chlorophenyl)cyclo-propanecarboxamide] | 10 | 25 |  | 164 | no effect | 192
CCOc1ccc(-c2cc(O)c(NC(=O)C3CC3c3cccc(C)c3)cc2-c2nnn[nH]2)cn1 (racemic) [Example 51, N-[4-(6-Ethoxypyridin-3-yl)-2-hydroxy-5-(1H-tetrazol-5-yl)phenyl]-2-(3-methylphenyl)cyclopro-panecarboxamide] | 3 | 11 | 8 |  |  | 
Cc1cccc(C2CC2C(=O)Nc2cc(-c3nnn[nH]3)c(-c3ccc(C(F)(F)F)nc3)cc2O)c1 (racemic) [Example 52, N-{2-Hydroxy-5-(1H-tetrazol-5-yl)-4-[6-(trifluoromethyl)pyridin-3-yl]phenyl}-2-(3-methylphenyl)cyclopro-panecarboxamide] | 41 | 37 | 78 |  |  | 
COc1ccc(-c2cc(F)c(NC(=O)C3CC3c3cccc(C)c3)cc2-c2nnn[nH]2)cc1 (racemic) [Example 55, N-[5-Fluoro-4′-methoxy-2-(1H-tetrazol-5-yl)biphenyl-4-yl]-2-(3-methylphenyl)cyclopro-panecarboxamide] | 19 | 10 | 22 |  |  | 
CCOc1ccc(-c2c(F)cc(NC(=O)C3CC3c3ccc(Cl)cc3)cc2-c2nnn[nH]2)cn1 (racemic) [Example 61, 2-(4-chlorophenyl)-N-[4-(6-ethoxypyridin-3-yl)-3-fluoro-5-(1H-tetrazol-5-yl)phenyl]cyclopropane-carboxamide] | 12 |  | 44 |  |  | 
CCOc1ccc(-c2cc(C)c(NC(=O)C3CC3c3ccc(Cl)cc3)cc2-c2nnn[nH]2)cn1 (racemic) [Example 64, 2-(4-Chlorophenyl)-N-[4-(6-ethoxypyridin-3-yl)-2-methyl-5-(1H-tetrazol-5-yl)phenyl]cyclopropane-carboxamide] | 15 | 37 | 63 |  |  | 
Cc1cccc(C2CC2C(=O)Nc2ccc(-c3ccc(OC(C)C)nc3)c(-c3nnn[nH]3)c2)c1 (racemic) [Example 78, N-[4-(6-isopropoxypyridin-3-yl)-3-(1H-tetrazol-5-yl)phenyl]-2-(3-methylphenyl)cyclopro-panecarboxamide] |  | 10 | 9 |  |  | 
COc1ccc(-c2ccc(NC(=O)C3CC3C3CCCCC3)cc2-c2nnn[nH]2)cc1OC (single isomer, unassigned) [Example 14, 2-Cyclohexyl-N-[3′,4′-dimethoxy-2-(1H-tetrazol-5-yl)biphenyl-4-yl]cyclopropane-carboxamide] |  | 27 | 20 |  |  | 
